Experimental data: patent publication US5488051A, “Substituted 5,6-dihydro-5-oxo-1,4-dithiino-(2,3-d)-pyridazine-2,3-dicarbonitriles, compositions containing them and their use as antimicrobials” (The Dow Chemical Company, priority 1994, dated 1996)
Read-outs that look alike come from different tables or passages of the source.

How the values were obtained:
[1] = test system: Penicillium chrysogenum (Pc); assay: MIC for Penicillium chrysogenum, malt yeast agar; assay type: cell-based, Penicillium chrysogenum ATCC 9480; conditions: 72 h, read-out: Minimum Inhibitory Concentration (MIC), PC
Method: (§1) The minimum inhibitory concentration (MIC) for the compounds listed in Table I is determined for 9 bacteria, using nutrient agar; and 7 yeast and fungi, using malt yeast agar. A one percent solution of the test compound is prepared in a mixture of acetone and water.
(§2) Malt yeast agar is prepared by adding 3 g yeast extract and 45 g malt agar per liter of deionized water. The specific agar is dispensed in 30 mL aliquots into 25×200 mm test tubes, capped and autoclaved for 15 minutes at 115° C.
(§3) The test tubes containing the malt yeast agar and the nutrient agar are cooled in a water bath until the temperature of the agar is 48° C. Then, an appropriate amount of the one percent solution of the test compound is added (except in the controls where no compound is added) to the respective test tubes so that the final concentrations are zero (0), 1.0, 2.5, 5, 10, 25, 50, 100, 250 and 500 parts per million of the test compound in each of the respective type of agar. The contents of each of the test tubes are then transferred to separate petri plates. After drying for 24 hours, the petri plates containing nutrient agar are inoculated with bacteria and those containing malt yeast agar are inoculated with yeast and fungi.
(§4) The inoculation with the yeast and fungi is accomplished as follows. Cultures of yeast and fungi are incubated for seven days on malt yeast agar at 30° C. These cultures are used to prepare suspensions by the following procedure. A suspension of each organism is prepared by adding 10 mL of sterile saline and 10 microliters of octylphenoxy polyethoxy ethanol to the agar slant of yeast or fungi. The sterile saline/octylphenoxy polyethoxy ethanol solution is then agitated with a sterile swab to suspend the microorganism grown on the slant. Each resulting suspension is diluted into sterile saline (1 part suspension: 9 parts sterile saline). Aliquots of these dilutions are placed in individual wells of Steer's Replicator and petri plates inoculated as previously described. The petri plates are incubated at 30° C. and read after 48 hours for yeast and 72 hours for fungi.
(§5) Table II list the bacteria, yeast and fungi used in the MIC test described above along with their respective American Type Culture Collection (ATCC) identification numbers.

Saccharomyces cerevisiae = assay: MIC for Saccharomyces cerevisiae, malt yeast agar; assay type: cell-based, Saccharomyces cerevisiae ATCC 4105; conditions: 48 h, read-out: Minimum Inhibitory Concentration (MIC), Sc
Method: as §1, §2, §3, §4, §5

[2] = test system: Aureobasidium pullulan (Ap); assay: MIC for Aureobasidium pullulan, malt yeast agar; assay type: cell-based, Aureobasidium pullulan ATCC 16622; conditions: read-out: Minimum Inhibitory Concentration (MIC), Ap
Method: as §1, §2, §3, §4, §5

[3] = test system: Enterobacter aerogenes (Ea); assay: MIC for Enterobacter aerogenes, nutrient agar; assay type: cell-based, Enterobacter aerogenes ATCC 13048; conditions: Klebsiella aerogenes, 48 h
Method: as §1
(§6) Nutrient agar is prepared at pH 6.8, representing a neutral medium, and at pH 8.2, representing an alkaline medium. The nutrient agars are prepared by adding 23 g of nutrient agar to one-liter of deionized water. In addition, the alkaline medium is prepared by adjusting a 0.04M solution of N-[tris-(hydroxymethyl)methyl]-glycine buffered deionized water with concentrated sodium hydroxide to a pH of 8.5.
as §3
(§7) The inoculation with bacteria is accomplished by using the following procedure. Twenty-four hour-cultures of each of the bacteria are prepared by incubating the respective bacteria in tubes containing nutrient broth for 24 hours at 30° C. in a shaker. Dilutions of each of the 24 hour-cultures are made so that nine separate suspensions (one for each of the nine test bacteria) are made, each containing 10^8 colony forming units (CFU) per mL of suspension of a particular bacteria. Aliquots of 0.3 mL of each of the bacterial suspensions are used to fill the individual wells of Steer's Replicator. For each microbial suspension, 0.3 mL was used to fill three wells (i.e., three wells of 0.3 mL each) so that for the nine different bacteria, 27 wells are filled. The Steer's Replicator is then used to inoculate both the neutral and alkaline pH nutrient agar petri plates.
(§8) The inoculated petri plates are incubated at 30° C. for 48 hours and then read to determine if the test compound which is incorporated into the agar prevented growth of the respective bacteria.
as §5

[4] = test system: Klebsiella pneumonias (Kp); assay: MIC for Klebsiella pneumonias, nutrient agar; assay type: cell-based, Klebsiella pneumonias ATCC 8308; conditions: 48 h
Method: as §1, §6, §3, §7, §8, §5

Fusarium oxysporum (Fo) = assay: MIC for Fusarium oxysporum, malt yeast agar; assay type: cell-based, Fusarium oxysporum ATCC 48112; conditions: 72 h, read-out: Minimum Inhibitory Concentration (MIC), Fo
Method: as §1, §2, §3, §4, §5

Bacillus subtilis (Bs) = assay: MIC for Bacillus subtilis, nutrient agar; assay type: cell-based, Bacillus subtilis ATCC 8473; conditions: 48 h
Method: as §1, §6, §3, §7, §8, §5

Trichoderma viride (Tv) = assay: MIC for Trichoderma viride, malt yeast agar; assay type: cell-based, Trichoderma viride ATCC 8678; conditions: 72 h, read-out: Minimum Inhibitory Concentration (MIC), Tv
Method: as §1, §2, §3, §4, §5

[5] = test system: Pseudomonas aeruginosa (PRD-10); assay: MIC for Pseudomonas aeruginosa PRD-10, nutrient agar; assay type: cell-based, Pseudomonas aeruginosa ATCC 15442; conditions: 48 h
Method: as §1, §6, §3, §7, §8, §5

Proteus vulgaris (Pv) = assay: MIC for Proteus vulgaris, nutrient agar; assay type: cell-based, Proteus vulgaris ATCC 881; conditions: 48 h
Method: as §1, §6, §3, §7, §8, §5

Salmonella choleraesuis = assay: MIC for Salmonella choleraesuis, nutrient agar; assay type: cell-based, Salmonella choleraesuis ATCC 10708; conditions: Salmonella enterica, 48 h
Method: as §1, §6, §3, §7, §8, §5

Candida albicans (Ca) = assay: MIC for Candida albicans, malt yeast agar; assay type: cell-based, Candida albicans ATCC 10231; conditions: 48 h, read-out: Minimum Inhibitory Concentration (MIC), Ca
Method: as §1, §2, §3, §4, §5

[6] = test system: Pseudomonas aeruginosa (Pa); assay: MIC for Pseudomonas aeruginosa, nutrient agar; assay type: cell-based, Pseudomonas aeruginosa ATCC 10145; conditions: 48 hours, read-out: Minimum Inhibitory Concentration (MIC), Pa
Method: as §1, §6, §3, §7, §8, §5

[7] = test system: Staphylococcus aureus (Sa); assay: MIC for Staphylococcus aureus, nutrient agar; assay type: cell-based, Staphylococcus aureus ATCC 6538; conditions: 48 h
Method: as §1, §6, §3, §7, §8, §5

Aspergillus niger (An) = assay: MIC for Aspergillus niger, malt yeast agar; assay type: cell-based, Aspergillus niger ATCC 16404; conditions: 72 h, read-out: Minimum Inhibitory Concentration (MIC), An
Method: as §1, §2, §3, §4, §5

Escherichia coli (Ec) = assay: MIC for Escherichia coli, nutrient agar; assay type: cell-based, Escherichia coli ATCC 11229; conditions: 48 h
Method: as §1, §6, §3, §7, §8, §5

## ClC=CC[N+]12CN3CN(CN(C3)C1)C2.[Cl-] [STANDARD I, 1-(3-chloroallyl)-3,5,7-triaza-1-azoniaadamantane chloride, reference compound]
[1]
  MIC: > 500 µg/mL
Saccharomyces cerevisiae
  MIC: 500 µg/mL
[2]
  MIC: > 500 µg/mL
[3]; pH 6.8, read-out: Minimum Inhibitory Concentration (MIC), Ea
  MIC: 100 µg/mL
[3]; pH 8.2, read-out: Minimum Inhibitory Concentration (MIC), Ea
  MIC: 250 µg/mL
[4]; pH 6.8, read-out: Minimum Inhibitory Concentration (MIC), Kp
  MIC: 50 µg/mL
[4]; pH 8.2, read-out: Minimum Inhibitory Concentration (MIC), Kp
  MIC: 250 µg/mL
Fusarium oxysporum (Fo)
  MIC: > 500 µg/mL
Bacillus subtilis (Bs); pH 6.8, read-out: Minimum Inhibitory Concentration (MIC), Bs
  MIC: 50 µg/mL
Bacillus subtilis (Bs); pH 8.2, read-out: Minimum Inhibitory Concentration (MIC), Bs
  MIC: 250 µg/mL
Trichoderma viride (Tv)
  MIC: > 500 µg/mL
[5]; pH 6.8, read-out: Minimum Inhibitory Concentration (MIC), PRD
  MIC: 100 µg/mL
[5]; pH 8.2, read-out: Minimum Inhibitory Concentration (MIC), PRD
  MIC: 500 µg/mL
Proteus vulgaris (Pv); pH 6.8, read-out: Minimum Inhibitory Concentration (MIC), Pv
  MIC: 50 µg/mL
Proteus vulgaris (Pv); pH 8.2, read-out: Minimum Inhibitory Concentration (MIC), Pv
  MIC: 250 µg/mL
Salmonella choleraesuis; pH 6.8, read-out: Minimum Inhibitory Concentration (MIC), SC
  MIC: 50 µg/mL
Salmonella choleraesuis; pH 8.2, read-out: Minimum Inhibitory Concentration (MIC), SC
  MIC: 100 µg/mL
Candida albicans (Ca)
  MIC: > 500 µg/mL
[6]; pH 6.8, 30° C.
  MIC: 100 µg/mL
[6]; pH 8.2, 30° C.
  MIC: > 500 µg/mL
[7]; pH 6.8, read-out: Minimum Inhibitory Concentration (MIC), Sa
  MIC: 100 µg/mL
[7]; pH 8.2, read-out: Minimum Inhibitory Concentration (MIC), Sa
  MIC: 250 µg/mL
Aspergillus niger (An)
  MIC: > 500 µg/mL
Escherichia coli (Ec); pH 6.8, read-out: Minimum Inhibitory Concentration (MIC), Ec
  MIC: 100 µg/mL
Escherichia coli (Ec); pH 8.2, read-out: Minimum Inhibitory Concentration (MIC), Ec
  MIC: 250 µg/mL
